Experimental data as given in patent US20080274522A1, “METHOD FOR THE PRODUCTION OF 2-BUTANONE” (priority 2007, published 2008).
Where two headings read alike, the source gives them in different places.

What was measured:
E. coli strain MG1655 [1] = details: stationary phase
Description: For the stationary phase studies, E. coli strain MG1655 (ATCC # 700926) was grown overnight in LB medium (Teknova, Half Moon Bay, Calif.) with shaking at 250 rpm at 42° C., […] 28° C. […] To these were added 10 μL of the overnight cultures and the tubes were immediately placed in shaking incubators at 42° C. or 28° C. or left on ice for 30 min. […] Then, 5 μL of the undiluted treated cultures were spotted on LB agar plates. Subsequent 10-fold serial dilutions of 10^−3, 10^−4, 10^−5 and 10^−6 of the exposed cultures were done by serial pipetting of 20 μL, starting with the 10^−2 dilution cultures, into 180 μL of LB medium in the microplate, using a multi-channel pipette. Prior to each transfer, the cultures were mixed by pipetting up and down six times. Each dilution (5 μL) was spotted onto an LB plate using a multi-channel pipette and allowed to soak into the plate. The plates were inverted and incubated overnight at 37° C. […] Survival of 0% was recorded when no colonies in the spots of the undiluted or any of the serial dilutions were observed.

E. coli strain MG1655 [2] = details: log-phase
Description: A similar study was done with log-phase cultures of E. coli grown in a defined medium. E. coli strain MG1655 was allowed to grow overnight in MOPS 0.2% glucose medium (Teknova, Half Moon Bay, Calif.) at 42° C. or 28° C. The following day, the cultures were diluted into fresh medium and allowed to grow at the same temperature until in the log phase of growth. […] To these were added 10 μL of the log phase cultures and the tubes were immediately placed in shaking incubators at 42° C. or 28° C. or left on ice for 30 min. […] Then 5 μL of the undiluted treated cultures were spotted on LB agar plates. Subsequent 10-fold serial dilutions of 10^−3, 10^−4, 10^−5 and 10^−6 of the exposed cultures were done by serial pipetting of 20 μL, starting with the 10^−2 dilution cultures, into 180 μL of LB medium in the microplate, using a multi-channel pipette. Prior to each transfer, the cultures were mixed by pipetting up and down six times. Each dilution (5 μL) was spotted onto an LB plate using a multi-channel pipette and allowed to soak into the plate. The plates were inverted and incubated overnight at 37° C. […] Survival of 0% was recorded when no colonies in the spots of the undiluted or any of the serial dilutions were observed.

[3] = 1-butanol 1.0 % (w/v), grown at 28° C.
[4] = 1-butanol 1.0 % (w/v), grown at 29° C.
[5] = 1-butanol 1.0 % (w/v), grown at 42° C.
[6] = 1-butanol 1.5 % (w/v), grown at 28° C.
[7] = 1-butanol 1.5 % (w/v), grown at 29° C.
[8] = 1-butanol 1.5 % (w/v), grown at 42° C.
[9] = 1-butanol 2.0 % (w/v), grown at 28° C.
[10] = 1-butanol 2.0 % (w/v), grown at 29° C.
[11] = 1-butanol 2.0 % (w/v), grown at 42° C.
[12] = 1-butanol 3.0 % (w/v), grown at 28° C.
[13] = 1-butanol 3.0 % (w/v), grown at 29° C.
[14] = 1-butanol 3.0 % (w/v), grown at 42° C.
[15] = 1-butanol 4.0 % (w/v), grown at 28° C.
[16] = 1-butanol 4.0 % (w/v), grown at 29° C.
[17] = 1-butanol 4.0 % (w/v), grown at 42° C.
[18] = 1-butanol 5.0 % (w/v), grown at 29° C.
[19] = 1-butanol 5.0 % (w/v), grown at 42° C.
[20] = 1-butanol 6.0 % (w/v), grown at 29° C.
[21] = 1-butanol 6.0 % (w/v), grown at 42° C.
[22] = 1-butanol […] (w/v), grown at 29° C.
[23] = 1-butanol […] (w/v), grown at 42° C.

1-butanol
% survival after 30 min exposure at 28° C. (E. coli strain MG1655 [1]; [3]): 100% | % survival after 30 min exposure at 0° C. (E. coli strain MG1655 [1]; [4]): 100% | % survival after 30 min exposure at 42° C. (E. coli strain MG1655 [1]; [4]): 100% | % survival after 30 min exposure at 0° C. (E. coli strain MG1655 [1]; [5]): 100% | % survival after 30 min exposure at 28° C. (E. coli strain MG1655 [1]; [5]): 100% | % survival after 30 min exposure at 42° C. (E. coli strain MG1655 [1]; [5]): 100% | % survival after 30 min exposure at 28° C. (E. coli strain MG1655 [1]; [6]): 100% | % survival after 30 min exposure at 0° C. (E. coli strain MG1655 [1]; [7]): 100% | % survival after 30 min exposure at 42° C. (E. coli strain MG1655 [1]; [7]): 0.1% | % survival after 30 min exposure at 0° C. (E. coli strain MG1655 [1]; [8]): 100% | % survival after 30 min exposure at 28° C. (E. coli strain MG1655 [1]; [8]): 100% | % survival after 30 min exposure at 42° C. (E. coli strain MG1655 [1]; [8]): 0.1% | % survival after 30 min exposure at 28° C. (E. coli strain MG1655 [1]; [9]): 100% | % survival after 30 min exposure at 0° C. (E. coli strain MG1655 [1]; [10]): 100% | % survival after 30 min exposure at 42° C. (E. coli strain MG1655 [1]; [10]): 0.1% | % survival after 30 min exposure at 0° C. (E. coli strain MG1655 [1]; [11]): 100% | % survival after 30 min exposure at 28° C. (E. coli strain MG1655 [1]; [11]): 100% | % survival after 30 min exposure at 42° C. (E. coli strain MG1655 [1]; [11]): 0% | % survival after 30 min exposure at 28° C. (E. coli strain MG1655 [1]; [12]): 100% | % survival after 30 min exposure at 0° C. (E. coli strain MG1655 [1]; [13]): 100% | % survival after 30 min exposure at 42° C. (E. coli strain MG1655 [1]; [13]): 0% | % survival after 30 min exposure at 0° C. (E. coli strain MG1655 [1]; [14]): 100% | % survival after 30 min exposure at 28° C. (E. coli strain MG1655 [1]; [14]): 100% | % survival after 30 min exposure at 42° C. (E. coli strain MG1655 [1]; [14]): 0% | % survival after 30 min exposure at 28° C. (E. coli strain MG1655 [1]; [15]): 0.0003% | % survival after 30 min exposure at 0° C. (E. coli strain MG1655 [1]; [16]): 100% | % survival after 30 min exposure at 42° C. (E. coli strain MG1655 [1]; [16]): 0% | % survival after 30 min exposure at 0° C. (E. coli strain MG1655 [1]; [17]): 100% | % survival after 30 min exposure at 28° C. (E. coli strain MG1655 [1]; [17]): 0.0004% | % survival after 30 min exposure at 42° C. (E. coli strain MG1655 [1]; [17]): 0% | % survival after 30 min exposure at 0° C. (E. coli strain MG1655 [1]; [18]): 1% | % survival after 30 min exposure at 0° C. (E. coli strain MG1655 [1]; [19]): 1% | % survival after 30 min exposure at 0° C. (E. coli strain MG1655 [1]; [20]): 0.001% | % survival after 30 min exposure at 0° C. (E. coli strain MG1655 [1]; [21]): 0% | % survival after 30 min exposure at 0° C. (E. coli strain MG1655 [1]; 1-butanol 7.0 % (w/v), grown at 29° C.): 0% | % survival after 30 min exposure at 0° C. (E. coli strain MG1655 [1]; 1-butanol 7.0 % (w/v), grown at 42° C.): 0% | % survival after 30 min exposure at 0° C. (E. coli strain MG1655 [1]; [22]): 100% | % survival after 30 min exposure at 42° C. (E. coli strain MG1655 [1]; [22]): 0% | % survival after 30 min exposure at 0° C. (E. coli strain MG1655 [1]; [23]): 100% | % survival after 30 min exposure at 42° C. (E. coli strain MG1655 [1]; [23]): 0% | % survival after 30 min exposure at 42° C. (E. coli strain MG1655 [2]; [3]): 100% | % survival after 30 min exposure at 42° C. (E. coli strain MG1655 [2]; [5]): 100% | % survival after 30 min exposure at 28° C. (E. coli strain MG1655 [2]; [6]): 100% | % survival after 30 min exposure at 42° C. (E. coli strain MG1655 [2]; [6]): 0% | % survival after 30 min exposure at 28° C. (E. coli strain MG1655 [2]; [8]): 100% | % survival after 30 min exposure at 42° C. (E. coli strain MG1655 [2]; [8]): 0% | % survival after 30 min exposure at 28° C. (E. coli strain MG1655 [2]; [9]): 100% | % survival after 30 min exposure at 42° C. (E. coli strain MG1655 [2]; [9]): 0% | % survival after 30 min exposure at 28° C. (E. coli strain MG1655 [2]; [11]): 100% | % survival after 30 min exposure at 42° C. (E. coli strain MG1655 [2]; [11]): 0% | % survival after 30 min exposure at 28° C. (E. coli strain MG1655 [2]; [12]): 0% | % survival after 30 min exposure at 42° C. (E. coli strain MG1655 [2]; [12]): 0% | % survival after 30 min exposure at 0° C. (E. coli strain MG1655 [2]; [13]): 100% | % survival after 30 min exposure at 0° C. (E. coli strain MG1655 [2]; [14]): 100% | % survival after 30 min exposure at 28° C. (E. coli strain MG1655 [2]; [14]): 0% | % survival after 30 min exposure at 42° C. (E. coli strain MG1655 [2]; [14]): 0% | % survival after 30 min exposure at 28° C. (E. coli strain MG1655 [2]; [15]): 0% | % survival after 30 min exposure at 42° C. (E. coli strain MG1655 [2]; [15]): 0% | % survival after 30 min exposure at 0° C. (E. coli strain MG1655 [2]; [16]): 100% | % survival after 30 min exposure at 0° C. (E. coli strain MG1655 [2]; [17]): 100% | % survival after 30 min exposure at 28° C. (E. coli strain MG1655 [2]; [17]): 0.001% | % survival after 30 min exposure at 42° C. (E. coli strain MG1655 [2]; [17]): 0% | % survival after 30 min exposure at 0° C. (E. coli strain MG1655 [2]; [18]): 50% | % survival after 30 min exposure at 0° C. (E. coli strain MG1655 [2]; [19]): 10% | % survival after 30 min exposure at 0° C. (E. coli strain MG1655 [2]; [20]): 1% | % survival after 30 min exposure at 0° C. (E. coli strain MG1655 [2]; [21]): 1% | % survival after 30 min exposure at 42° C. (E. coli strain MG1655 [2]; 1-butanol […] (w/v), grown at 28° C.): 0% | % survival after 30 min exposure at 0° C. (E. coli strain MG1655 [2]; [22]): 100% | % survival after 30 min exposure at 0° C. (E. coli strain MG1655 [2]; [23]): 100% | % survival after 30 min exposure at 42° C. (E. coli strain MG1655 [2]; [23]): 0%
